Data reported in patent publication US20090124631A1, “Combination Therapy” (priority 2007, published 2009).
Entries after “also recorded” stand apart in the source; their conditions may differ.

Assays:
[1] = test system: MT3 transcription in implanted H460 tumors; test: MT3 transcription in implanted H460 tumors in vivo; design: species or system mouse; details: H460 tumors in mice, single dose 100 mg/kg po
Experimental: 6 hours or 24 hours post drug administration, mice were sacrificed and tumor excised and put in RNAlater (Ambion, Austin, Tex.) and stored at −70 C until RNAs were extracted using QiaShredder and RNeasy mini kit (Qiagen). For real time RT-PCR to determine MT3 transcription level, 1 μg RNA was converted into cDNA using Expand RT enzyme (Roche) and Oligo(dT) primers (Invitrogen) in a 20 μl reaction volume. For quantitative real-time PCR, the primers used for MT3 were 5′CCCTGCGGAGTGTGAGAAGT 3′ and 5′TGCTTCTGCCTCAGCTGCCT 3′ and those for β-actin were 5′CTCTTCCAGCCTTCCTTCCT 3′ and 5′AGCACTGTGTTGGCGTACAG 3′. Reactions with either pair of primers included an annealing temperature of 63.4° C. All real-time PCR reactions were performed on the MasterCycler ep Realplex (Eppendorf) using FastStart SYBRGreen Master (Roche).

[2] = test system: anti-angiogenesis genes in colon adenocarcinoma HCT15 cells; test: Microarray analysis of anti-angiogenesis genes in HCT15 cells; assay type: cell-based, human; details: 1 μM, 24 h
Experimental: RNA labeling, microarray hybridization, scanning and analysis were performed by Genotypics (India). RNAs were labeled with either Cy3 or Cy5 using Agilent's optimized labeling kits and hybridized to Human whole genome 44K Oligo Microarray. Array chips were ordered from Agilent (Palo Alto, Calif.). Slides were scanned using a DNA microarry scanner from Agilent and the raw data was extracted using Agilent's image analysis tool (feature extraction software). Normalization and Statistical analysis were performed using GeneSpring software. Biological analysis was performed using Biointerpreter software.
FIG. 4a indicates a list of selected genes with anti-angiogenesis function. The numbers indicate the fold induction in treated samples compared to non-treated samples (average of three biological replicates ±standard deviation).

[3] = test system: MT3 transcription in human myeloma RPMI-8226 cells; test: MT3 transcription in RPMI-8226 cells, real time RT-PCR; assay type: cell-based; details: 24 hours
Experimental: Total RNAs were extracted from cell pellets or from tumors using QiaShredder and RNeasy mini kit (Qiagen). 1 μg RNA was converted into cDNA using Expand RT enzyme (Roche) and Oligo(dT) primers (Invitrogen) in a 20 μl reaction volume. For quantitative real-time PCR, the primers used for MT3 were [NT] and [NT] and those for β-actin were [NT] and [NT]. Reactions with either pair of primers included an annealing temperature of 63.4° C. All real-time PCR reactions were performed on the MasterCycler ep Realplex (Eppendorf) using FastStart SYBRGreen Master (Roche).

[4] = test system: human AZ521 gastric tumor xenograft; test: AZ521 gastric tumor xenograft, combination with taxol; assay type: in vivo, mouse; details: AZ521, Compound D 40 mg/kg oral daily 14 days with taxol 20 mg/kg i.v.
Experimental: Antitumor studies were done using human AZ521 gastric tumor xenograft model in male BALBc/A nude mice (from Japan Crea Inc., Japan). Male nude mice were used at age 8-10 weeks. Human carcinoma cells were injected subcutaneously in the animal flank and allowed to form solid tumors. Tumor fragments (about 2 mm^2 fragments) were then removed and implanted subcutaneously to the right flank of other animals. When the tumor sizes reached about 100 to 200 mm^3, recipient animals were treated Compound D (40 mg/kg, suspended with 0.5% HPMC) by oral administration alone, or taxol by i.v. injection (20 mg/kg), or combination of taxol with oral administration of Compound D. Typically, taxol was administered once per week by iv injection on the first day as a single administration, while Compound D was administered once daily for 14 days. Tumor volumes and gross body weight of animals were monitored twice weekly for up to 2 weeks. Each experimental group contained 6 animals.

Nc1ccccc1NC(=O)c1ccc(CNc2nccc(-c3cccnc3)n2)cc1 [Compound A]
MT3 transcription in tumors [1]: induction | transcription of anti-angiogenesis genes [2]: affects several genes of the angiogenesis pathway; also recorded: induction | MT3 transcription [3]: dose-dependent induction

Nc1ccc(-c2ccccc2)cc1NC(=O)c1ccc(N2CC[C@H](N)C2)cc1 [Compound D]
antitumor activity of taxol [4]: Potentiation
